Consider 14 compounds from patent US10604514B2, “6-(5-membered heteroaryl)isoquinolin-3-yl carboxamides and preparation and use thereof” (Samumed, LLC, priority 2017, dated 2020).

Assay [1] has as its target DYRK1A kinase (Homo sapiens (Human), UniProt Q13627). Description: DYRK1A kinase assay (Ser/Thr 18 peptide Z-lyte, FRET). As to conditions: DYRK1A kinase; method text calls the value IC50.
Assay [2] concerns Wnt activity (Sp5-Luc reporter in SW480 colon carcinoma cells). Briefly: Wnt activity screening assay (Sp5-Luc reporter gene assay). The class given is cell-based, human. The method in brief:
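SW480 cells stably carrying an Sp5 promoter (eight TCF/LEF sites)-firefly luciferase reporter were plated in DMEM with 1% FBS and treated with a 10-point, 1:3 dilution series from 10 μM (0.1% DMSO) for 36 to 48 h at 37° C. Luminescence was normalized to DMSO controls, and EC50 came from four-parameter nonlinear regression.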

Assay [3] deals with Tau phosphorylation at Threonine 212 (pT212Tau), HEK293T cells. Briefly: Tau phosphorylation at Threonine 212 (pT212Tau) in Dyrk1a- and MAPT-overexpressing HEK293T cells, sandwich ELISA. The format is cell-based. Conditions: Homo sapiens, HEK-293T, overnight (16-18 hours), read-out: Thr212 EC50. How it is done:
Representative compounds were screened using the cell-based assay procedure for signal of Tau phosphorylation at Threonine 212 (pT212Tau) in a transiently double transfected (Dyrk1a- and MAPT-overexpressing) cell type as described below.
HEK293T cells (transfectable human embryonic kidney cells) were cultured in DMEM medium supplemented with 10% FBS and 1% penicillin/streptomycin.
HEK293T cells were transiently transfected to overexpress Dyrkla and microtubule-associated protein Tau (MAPT) genes. Specifically, Dyrkla and MAPT expression vectors were obtained from OriGene (10 μg of each, catalog numbers SC314641 and RC216166, respectively). A MaxiPrep for each vector was ordered and received from GeneWiz, yielding […] (resuspended at […]) of the Dyrkla expression vector, and 898 μg (resuspended at 1.796 μg/μL) of MAPT.
HEK293T cells were seeded at 1.0×10^7 cells in 10 mL per T-75 flask. […] One T-75 flask was designated as a no-vector negative control for pT212Tau signal.
After 4˜6 hours of incubation in transfection reagents, transiently double transfected HEK293T cells were dissociated by treatment with trypsin EDTA and seeded at 1.0×10^5 cells in 100 μL per well in 96-well plates. No-vector negative controls were seeded in separate 96-well plates to avoid the risk of the negative control cells picking up the overexpression during incubation. At the time of seeding, DMSO-resuspended Samumed compounds were dispensed to eight wells as a serial dilution from 10 μM to 4.6 nM final concentration in medium, or at 0.12 μM to 0.05 nM with particularly potent compounds. Cells were exposed to the representative compounds overnight (16-18 hours) in a 37° C. incubator.
96-Well flat-bottom plates were coated with 100 μL per well anti-HT7 capture antibody (ThermoFisher, MN1000) diluted 1:300 in 1×PBS at 4° C. overnight, with shaking at 500 rpm. After overnight capture antibody incubation, coated plates were washed four times with 200 µL per well of 1×PBS-0.05% Tween-20, and blocked for 1 hour with 200 μL per well of 1×PBS with 2% BSA. After 1 hour of blocking, plates were washed four times with 200 μL per well of 1×PBS-0.05% Tween-20, prior to sample loading.
Wells of compound-treated cells were visually checked for cell death before being washed with 200 μL per well of 1×DPBS supplemented with phosphatase inhibitor diluted to IX. Cells were then lysed with 100 μL 1×RIPA buffer supplemented with phosphatase and protease inhibitors (each diluted to a final 1×). Cells were shaken at 500 rpm, 4° C. for 20 minutes prior to further lysis (via manual scraping) and transfer to 96-well V-bottom collection plates (Corning, 3894). V-bottom plates were centrifuged at 4000 rpm, 4° C., for 15 minutes, and 100 μL of lysate supernatant from each well was directly tested for pT212Tau signal by sandwich ELISA.
Specifically, lysates were directly transferred to the coated and blocked ELISA plates for 2 hours before plates were washed four times with 200 μL per well of 1×PBS-0.05% Tween-20 and probed with 100 μL per well of anti-pT212Tau antibody (ThermoFisher, 44-740G) diluted 1:200 in 1×PBS for 2 hours. Plates were washed four times with 200 μL per well of 1×PBS-0.05% Tween-20 and probed with 100 μL per well of anti-rabbit/HRP conjugate (Cell Signaling Technology, 7074S) diluted 1:600 in 1×PBS for 1 hour. Plates were washed four times with 200 μL per well of 1×PBS-0.05% Tween-20 before 100 μL per well of TMB substrate solution (ThermoFisher, N301) was added. When colour development was observed, 100 μL per well of stop solution (ThermoFisher, N600) was added, and colorimetric detection of pT212Tau signal was read at 450 nm with the Cytation 3 Cell Imaging Multi-Mode Reader (BioTek). The signal was used to plot, draw the curves fitting, and determine the EC50 values in GraphPad Prism for tested representative compounds.

Setting [4] is: Homo sapiens; Sp5-Luc reporter, SW480 cells, 36 to 48 hours.
Where [5] appears, read: Homo sapiens, SW480; read-out: percent inhibition at 10 μM.
Setting [6] is: Homo sapiens, SW480, read-out: percent inhibition at 10 μM.

Structures are written as SMILES. Like-named read-outs stand apart in the source and are kept apart here. Some results are limits rather than exact numbers.

A word on the EC50: it is the concentration that produces a half-maximal response. As for `Cc1nnc(-c2cc(F)c3cnc(NC(=O)N(C)C4CCN(C)CC4)cc3c2)s1` [Compound 227, 3-(8-Fluoro-6-(5-methyl-1,3,4-thiadiazol-2-yl)isoquinolin-3-yl)-1-methyl-1-(1-methylpiperidin-4-yl)urea], the EC50 came out at 24 nM in assay [1], 3650 nM in assay [2] (setting [4]) and 691 nM in assay [3].
Broadly, the inhibition is the change of the read-out against control, counted positive when it falls. Regarding `CN1CCC(N(C)C(=O)Nc2cc3cc(-c4cn(C)nn4)cc(F)c3cn2)CC1` [Compound 228, 3-(8-Fluoro-6-(1-methyl-1H-1,2,3-triazol-4-yl)isoquinolin-3-yl)-1-methyl-1-(1-methylpiperidin-4-yl)urea], the EC50 is 12 nM in assay [1], over 10000 nM in assay [2] (setting [4]) and over 10000 nM in assay [3]. For the same compound, the inhibition at 10 µM in assay [2] (setting [5]) was found to be 46.3%.
Take `Cc1nnc(-c2ccc3cnc(NC(=O)N4C5CCC4CN(C)C5)cc3c2)s1` [Compound 108, 3-Methyl-N-(6-(5-methyl-1,3,4-thiadiazol-2-yl)isoquinolin-3-yl)-3,8-diazabicyclo[3.2.1]octane-8-carboxamide]: the EC50 in assay [1] was 10 nM; in assay [2] (setting [4]) it was over 10000 nM; in assay [3], 22 nM. Besides, in assay [2] (setting [6]), the inhibition at 10 µM was 19.9%.
In the case of `Cc1nnc(-c2ccc3cnc(NC(=O)N4[C@@H]5CC[C@H]4C[C@H](NCCC(F)(F)F)C5)cc3c2)s1` [Compound 153, (1R,5S)-N-(6-(5-Methyl-1,3,4-thiadiazol-2-yl)isoquinolin-3-yl)-3-exo-((3,3,3-trifluoropropyl)amino)-8-azabicyclo[3.2.1]octane-8-carboxamide], the EC50 in assay [1] was 28 nM; in assay [2] (setting [4]), over 10000 nM; in assay [3] it was 528 nM. For the same compound, the inhibition at 10 µM in assay [2] (setting [6]) came to 3.4%.
Turning to `Cc1nnc(-c2ccc3cnc(NC(=O)[C@H]4CC[C@H](N(C)C)CC4)cc3c2)s1` [Compound 22, trans-4-(Dimethylamino)-N-(6-(5-methyl-1,3,4-thiadiazol-2-yl)isoquinolin-3-yl)cyclohexane-1-carboxamide], the EC50 in assay [1] stood at 5 nM; in assay [2] (setting [4]), 434 nM; in assay [3], 11 nM.
The matching figures for `Cc1ncc(-c2ccc3cnc(NC(=O)N(C)C4CCN(C)CC4)cc3c2)o1` [Compound 231, 1-Methyl-3-(6-(2-methyloxazol-5-yl)isoquinolin-3-yl)-1-(1-methylpiperidin-4-yl)urea]: 16 nM, 3890 nM and 110 nM.
In the case of `CN1CCC(N(C)C(=O)Nc2cc3cc(-c4cnn(C)c4)cc(F)c3cn2)CC1` [Compound 230, 3-(8-Fluoro-6-(1-methyl-1H-pyrazol-4-yl)isoquinolin-3-yl)-1-methyl-1-(1-methylpiperidin-4-yl)urea], the values for the EC50 in assay [1], in assay [2] (setting [4]) and in assay [3] were 21 nM, over 10000 nM and 56 nM, respectively. Further, the inhibition at 10 µM in assay [2] (setting [5]) was determined as 0%.
Consider `COCCN[C@H]1CC[C@H](C(=O)Nc2cc3cc(-c4cnc(C)o4)ccc3cn2)CC1` [Compound 106, trans-4-((2-Methoxyethyl)amino)-N-(6-(2-methyloxazol-5-yl)isoquinolin-3-yl)cyclohexane-1-carboxamide], for which the EC50 came out at 17 nM in assay [1], 3430 nM in assay [2] (setting [4]) and 137 nM in assay [3].
On the same counts, the results for `Cc1ncc(-c2ccc3cnc(NC(=O)[C@H]4CC[C@H](NCCF)CC4)cc3c2)o1` [Compound 155, trans-4-((2-fluoroethyl)amino)-N-(6-(2-methyloxazol-5-yl)isoquinolin-3-yl) cyclohexane-1-carboxamide] are 8 nM, 2670 nM and 26 nM.
Consider `COCCN[C@H]1CC[C@H](C(=O)Nc2cc3cc(-c4cnn(C)c4)ccc3cn2)CC1` [Compound 196, trans-4-((2-Methoxyethyl)amino)-N-(6-(1-methyl-1H-pyrazol-4-yl)isoquinolin-3-yl)cyclohexane-1-carboxamide], for which the concentration for a half-maximal effect (EC50) in assay [1] came to 6 nM; in assay [2] (setting [4]) it was 3980 nM; in assay [3], 19 nM.
Consider `Cc1cn2c(n1)CN(C(=O)Nc1cc3cc(-c4nnc(C)s4)ccc3cn1)CC2` [Compound 58, 2-Methyl-N-(6-(5-methyl-1,3,4-thiadiazol-2-yl)isoquinolin-3-yl)-5,6-dihydroimidazo[1,2-a]pyrazine-7(8H)-carboxamide], for which the EC50 in assay [1] came to 6 nM; in assay [2] (setting [4]) it was 1460 nM; in assay [3], 93 nM.
Regarding `C[C@@H]1CN(C(=O)Nc2cc3cc(-c4cnn(C)c4)ccc3cn2)CCN1C` [Compound 67, (R)-3,4-Dimethyl-N-(6-(1-methyl-1H-pyrazol-4-yl)isoquinolin-3-yl) piperazine-1-carboxamide], the values for the concentration for a half-maximal effect (EC50) in assay [1], in assay [2] (setting [4]) and in assay [3] were 7 nM, over 10000 nM and 6 nM, respectively. In addition, in assay [2] (setting [5]), the inhibition at 10 µM was 34.3%.
Regarding `CN1CC2CCC(C1)N2C(=O)Nc1cc2cc(-c3cnn(C)c3)ccc2cn1` [Compound 61, 3-Methyl-N-(6-(1-methyl-1H-pyrazol-4-yl)isoquinolin-3-yl)-3,8-diazabicyclo[3.2.1]octane-8-carboxamide], the EC50 is 7 nM in assay [1], over 10000 nM in assay [2] (setting [4]) and 15 nM in assay [3]. The inhibition at 10 µM in assay [2] (setting [6]) was 22.4%.
On to `Cc1nnc(-c2ccc3cnc(NC(=O)N4[C@@H]5CC[C@H]4C[C@@H](NCCC(F)(F)F)C5)cc3c2)s1` [Compound 195, (1R,5S)-cis-N-(6-(5-methyl-1,3,4-thiadiazol-2-yl)isoquinolin-3-yl)-3-((3,3,3-trifluoropropyl)amino)-8-azabicyclo[3.2.1]octane-8-carboxamide], for which the EC50 in assay [1] was 5 nM; in assay [2] (setting [4]), over 10000 nM; in assay [3], 46 nM. The inhibition at 10 µM in assay [2] (setting [6]) is 13.8%.
